Test results: patent US20250059171A1 (Hoffmann-La Roche Inc., priority 2021, published 2025)

How the values were obtained:
SARS-CoV-2 3CLpro = SARS-CoV-2 3CLpro (Severe acute respiratory syndrome coronavirus 2, UniProt P0DTD1); experiment: biochemical
HCoV-229E 3CLpro = HCoV-229E 3CLpro (Human coronavirus 229E, UniProt P0C6X1); experiment: HCoV-229E 3CLpro inhibition assay (FRET); type: biochemical
MERS-CoV 3CLpro = MERS-CoV 3CLpro (Middle East respiratory syndrome-related coronavirus, UniProt K9N7C7); experiment: biochemical
Chain of MERS-CoV 3CLpro (K9N7C7 3248-3553): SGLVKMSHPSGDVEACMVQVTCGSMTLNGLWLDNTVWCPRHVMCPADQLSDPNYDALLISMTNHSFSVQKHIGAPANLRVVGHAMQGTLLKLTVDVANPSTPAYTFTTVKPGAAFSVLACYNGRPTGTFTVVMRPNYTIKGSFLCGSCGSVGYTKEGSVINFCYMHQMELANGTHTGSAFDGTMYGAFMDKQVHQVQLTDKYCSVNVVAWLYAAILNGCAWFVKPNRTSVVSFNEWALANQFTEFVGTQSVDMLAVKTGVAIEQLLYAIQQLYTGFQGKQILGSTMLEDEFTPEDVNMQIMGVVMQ

SARS-CoV 3CLpro = SARS-CoV 3CLpro (Severe acute respiratory syndrome coronavirus, UniProt P0C6X7); experiment: biochemical

Chain of HCoV-229E 3CLpro (P0C6X1 2966-3267): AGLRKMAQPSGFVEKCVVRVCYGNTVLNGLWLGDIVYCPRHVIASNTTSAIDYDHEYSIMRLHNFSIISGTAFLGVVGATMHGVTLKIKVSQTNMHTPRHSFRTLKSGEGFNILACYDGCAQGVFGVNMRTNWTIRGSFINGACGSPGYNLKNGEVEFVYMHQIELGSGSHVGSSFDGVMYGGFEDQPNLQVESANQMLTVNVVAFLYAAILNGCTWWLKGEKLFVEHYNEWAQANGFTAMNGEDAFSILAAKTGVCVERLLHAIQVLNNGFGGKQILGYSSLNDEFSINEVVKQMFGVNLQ

Compound | IC50 (SARS-CoV-2 3CLpro) [nM] | IC50 (HCoV-229E 3CLpro) [nM] | IC50 (MERS-CoV 3CLpro) [nM] | IC50 (SARS-CoV 3CLpro) [nM]
CC[C@@H](C)[C@H](NC(=O)C1(F)CC1)C(=O)N1C[C@H]2[C@@H]([C@H]1C(=O)NN(C[C@@H]1CCNC1=O)C(=O)[C@H](F)Cl)C2(C)C [Example 115, N-[(1S,2R)-1-[(1R,2S,5S)-2-[[[(2R)-2-chloro-2-fluoro-acetyl]-[[(3S)-2-oxopyrrolidin-3-yl]methyl]amino]carbamoyl]-6,6-dimethyl-3-azabicyclo[3.1.0]hexane-3-carbonyl]-2-methyl-butyl]-1-fluoro-cyclopropanecarboxamide] | 9 | 30 | 102 | 15
CC[C@@H](C)[C@H](NC(=O)[C@@H](C)F)C(=O)N1C[C@H]2[C@@H]([C@H]1C(=O)NN(C[C@@H]1CCNC1=O)C(=O)[C@H](F)Cl)C2(C)C [Example 116, (2R)—N-[(1S,2R)-1-[(1R,2S,5S)-2-[[[(2R)-2-chloro-2-fluoro-acetyl]-[[(3S)-2-oxopyrrolidin-3-yl]methyl]amino]carbamoyl]-6,6-dimethyl-3-azabicyclo[3.1.0]hexane-3-carbonyl]-2-methyl-butyl]-2-fluoro-propanamide] | 14 | 36 | 98 | 18
CC[C@@H](C)[C@H](NC(=O)[C@H](C)F)C(=O)N1C[C@H]2[C@@H]([C@H]1C(=O)NN(C[C@@H]1CCNC1=O)C(=O)[C@H](F)Cl)C2(C)C [Example 117, (2S)—N-[(1S,2R)-1-[(1R,2S,5S)-2-[[[(2R)-2-chloro-2-fluoro-acetyl]-[[(3S)-2-oxopyrrolidin-3-yl]methyl]amino]carbamoyl]-6,6-dimethyl-3-azabicyclo[3.1.0]hexane-3-carbonyl]-2-methyl-butyl]-2-fluoro-propanamide] | 11 | 25 | 86 | 11
CC[C@@H](C)[C@H](NC(=O)C1CC1)C(=O)N1C[C@H]2[C@@H]([C@H]1C(=O)NN(C[C@@H]1CCNC1=O)C(=O)[C@H](F)Cl)C2(C)C [Example 118, N-[(1S,2R)-1-[(1R,2S,5S)-2-[[[(2R)-2-chloro-2-fluoro-acetyl]-[[(3S)-2-oxopyrrolidin-3-yl]methyl]amino]carbamoyl]-6,6-dimethyl-3-azabicyclo[3.1.0]hexane-3-carbonyl]-2-methyl-butyl]cyclopropanecarboxamide] | 13 | 27 | 109 | 18
CC[C@@H](C)[C@H](NC(=O)C1(F)CCC1)C(=O)N1C[C@H]2[C@@H]([C@H]1C(=O)NN(C[C@@H]1CCNC1=O)C(=O)[C@H](F)Cl)C2(C)C [Example 119, N-[(1S,2R)-1-[(1R,2S,5S)-2-[[[(2R)-2-chloro-2-fluoro-acetyl]-[[(3S)-2-oxopyrrolidin-3-yl]methyl]amino]carbamoyl]-6,6-dimethyl-3-azabicyclo[3.1.0]hexane-3-carbonyl]-2-methyl-butyl]-1-fluoro-cyclobutanecarboxamide] | 15 | 56 | 206 | 20
CC[C@@H](C)[C@H](NC(=O)C(F)F)C(=O)N1C[C@H]2[C@@H]([C@H]1C(=O)NN(C[C@@H]1CCNC1=O)C(=O)[C@@H](F)Cl)C2(C)C [Example 120, N-[(1S,2R)-1-[(1R,2S,5S)-2-[[[(2S)-2-chloro-2-fluoro-acetyl]-[[(3S)-2-oxopyrrolidin-3-yl]methyl]amino]carbamoyl]-6,6-dimethyl-3-azabicyclo[3.1.0]hexane-3-carbonyl]-2-methyl-butyl]-2,2-difluoro-acetamide] | 19 | 38 | 98 | 34
CC[C@@H](C)[C@H](NC(=O)C1(F)CC1)C(=O)N1C[C@H]2[C@@H]([C@H]1C(=O)NN(C[C@@H]1CCNC1=O)C(=O)[C@@H](F)Cl)C2(C)C [Example 121, N-[(1S,2R)-1-[(1R,2S,5S)-2-[[[(2S)-2-chloro-2-fluoro-acetyl]-[[(3S)-2-oxopyrrolidin-3-yl]methyl]amino]carbamoyl]-6,6-dimethyl-3-azabicyclo[3.1.0]hexane-3-carbonyl]-2-methyl-butyl]-1-fluoro-cyclopropanecarboxamide] | 26 | 43 | 131 | 50
CC[C@@H](C)[C@H](NC(=O)[C@H](C)F)C(=O)N1C[C@H]2[C@@H]([C@H]1C(=O)NN(C[C@@H]1CCNC1=O)C(=O)[C@@H](F)Cl)C2(C)C [Example 122, (2S)—N-[(1S,2R)-1-[(1R,2S,5S)-2-[[[(2S)-2-chloro-2-fluoro-acetyl]-[[(3S)-2-oxopyrrolidin-3-yl]methyl]amino]carbamoyl]-6,6-dimethyl-3-azabicyclo[3.1.0]hexane-3-carbonyl]-2-methyl-butyl]-2-fluoro-propanamide] | 26 | 46 | 146 | 36
CC[C@@H](C)[C@H](NC(=O)[C@@H](C)F)C(=O)N1C[C@H]2[C@@H]([C@H]1C(=O)NN(C[C@@H]1CCNC1=O)C(=O)[C@@H](F)Cl)C2(C)C [Example 123, (2R)—N-[(1S,2R)-1-[(1R,2S,5S)-2-[[[(2S)-2-chloro-2-fluoro-acetyl]-[[(3S)-2-oxopyrrolidin-3-yl]methyl]amino]carbamoyl]-6,6-dimethyl-3-azabicyclo[3.1.0]hexane-3-carbonyl]-2-methyl-butyl]-2-fluoro-propanamide] | 37 | 51 | 146 | 62
CC[C@H](C)[C@H](NC(=O)C1CC(F)(F)C1)C(=O)N1C[C@@H]2CCC[C@@H]2[C@H]1C(=O)NN(C[C@@H]1CCNC1=O)C(=O)[C@H](F)Cl [Example 126, N-[(1S,2S)-1-[(3S,3aS,6aR)-3-[[[(2R)-2-chloro-2-fluoro-acetyl]-[[(3S)-2-oxopyrrolidin-3-yl]methyl]amino]carbamoyl]-3,3a,4,5,6,6a-hexahydro-1H-cyclopenta[c]pyrrole-2-carbonyl]-2-methyl-butyl]-3,3-difluoro-cyclobutanecarboxamide] | 10 | 28 | 68 | 11
CC[C@H](C)[C@H](NC(=O)C(F)F)C(=O)N1C[C@@H]2CCC[C@@H]2[C@H]1C(=O)NN(C[C@@H]1CCNC1=O)C(=O)[C@@H](F)Cl [Example 127, N-[(1S,2S)-1-[(3S,3aS,6aR)-3-[[[(2S)-2-chloro-2-fluoro-acetyl]-[[(3S)-2-oxopyrrolidin-3-yl]methyl]amino]carbamoyl]-3,3a,4,5,6,6a-hexahydro-1H-cyclopenta[c]pyrrole-2-carbonyl]-2-methyl-butyl]-2,2-difluoro-acetamide] | 10 | 35 | 68 | 12
CC[C@@H](C)[C@H](NC(=O)C1CC(F)(F)C1)C(=O)N1C[C@@H]2CCC[C@@H]2[C@H]1C(=O)NN(C[C@@H]1CCNC1=O)C(=O)[C@H](F)Cl [Example 128, N-[(1S,2R)-1-[(3S,3aS,6aR)-3-[[[(2R)-2-chloro-2-fluoro-acetyl]-[[(3S)-2-oxopyrrolidin-3-yl]methyl]amino]carbamoyl]-3,3a,4,5,6,6a-hexahydro-1H-cyclopenta[c]pyrrole-2-carbonyl]-2-methyl-butyl]-3,3-difluoro-cyclobutanecarboxamide] | 11 | 36 | 97 | 18
CCC(CC)[C@H](NC(=O)C1CC1)C(=O)N1C[C@H]2[C@@H]([C@H]1C(=O)NN(C[C@@H]1CCNC1=O)C(=O)[C@H](F)Cl)C2(C)C [Example 129, N-[(1S)-1-[(1R,2S,5S)-2-[[[(2R)-2-chloro-2-fluoro-acetyl]-[[(3S)-2-oxopyrrolidin-3-yl]methyl]amino]carbamoyl]-6,6-dimethyl-3-azabicyclo[3.1.0]hexane-3-carbonyl]-2-ethyl-butyl]cyclopropanecarboxamide] | 11 | 29 | 104 | 16
CCC(CC)[C@H](NC(=O)C1CC(F)(F)C1)C(=O)N1C[C@H]2[C@@H]([C@H]1C(=O)NN(C[C@@H]1CCNC1=O)C(=O)[C@H](F)Cl)C2(C)C [Example 130, N-[(1S)-1-[(1R,2S,5S)-2-[[[(2R)-2-chloro-2-fluoro-acetyl]-[[(3S)-2-oxopyrrolidin-3-yl]methyl]amino]carbamoyl]-6,6-dimethyl-3-azabicyclo[3.1.0]hexane-3-carbonyl]-2-ethyl-butyl]-3,3-difluoro-cyclobutanecarboxamide] | 12 | 32 | 87 | 19
CCC(CC)[C@H](NC(=O)C(F)F)C(=O)N1C[C@H]2[C@@H]([C@H]1C(=O)NN(C[C@@H]1CCNC1=O)C(=O)[C@H](F)Cl)C2(C)C [Example 131, N-[(1S)-1-[(1R,2S,5S)-2-[[[(2R)-2-chloro-2-fluoro-acetyl]-[[(3S)-2-oxopyrrolidin-3-yl]methyl]amino]carbamoyl]-6,6-dimethyl-3-azabicyclo[3.1.0]hexane-3-carbonyl]-2-ethyl-butyl]-2,2-difluoro-acetamide] | 10 | 26 | 158 | 14
CCC(CC)[C@H](NC(=O)C1(F)CC1)C(=O)N1C[C@H]2[C@@H]([C@H]1C(=O)NN(C[C@@H]1CCNC1=O)C(=O)[C@H](F)Cl)C2(C)C [Example 132, N-[(1S)-1-[(1R,2S,5S)-2-[[[(2R)-2-chloro-2-fluoro-acetyl]-[[(3S)-2-oxopyrrolidin-3-yl]methyl]amino]carbamoyl]-6,6-dimethyl-3-azabicyclo[3.1.0]hexane-3-carbonyl]-2-ethyl-butyl]-1-fluoro-cyclopropanecarboxamide] | 10 | 25 | 106 | 14
